Assay results from patent US11306081B2, “Phenylacetamides as inhibitors of rock” (BRISTOL-MYERS SQUIBB COMPANY, priority 2017, dated 2022).

Target: ROCK2 (Homo sapiens (Human), UniProt O75116)
Test: ROCK assay (LABCHIP 3000 peptide phosphorylation assay)
Format: biochemical
Settings: 5 μM ATP, 1.5 μM peptide substrate, dose-response
How it was run: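 Rho kinase variants in 20 mM HEPES pH 7.5, 20 mM MgCl2, 0.015% Brij-35, 4 mM DTT, 5 μM ATP, 1.5 μM FITC-AHA-AKRRRLSSLRA-OH peptide; DMSO <2%. EDTA-stopped; phosphorylated/non-phosphorylated peptide separated by microfluidic LabChip readout. Dose-response inhibition curve-fitted to give IC50.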

Sequence of ROCK2 (O75116 whole entry, species assumed): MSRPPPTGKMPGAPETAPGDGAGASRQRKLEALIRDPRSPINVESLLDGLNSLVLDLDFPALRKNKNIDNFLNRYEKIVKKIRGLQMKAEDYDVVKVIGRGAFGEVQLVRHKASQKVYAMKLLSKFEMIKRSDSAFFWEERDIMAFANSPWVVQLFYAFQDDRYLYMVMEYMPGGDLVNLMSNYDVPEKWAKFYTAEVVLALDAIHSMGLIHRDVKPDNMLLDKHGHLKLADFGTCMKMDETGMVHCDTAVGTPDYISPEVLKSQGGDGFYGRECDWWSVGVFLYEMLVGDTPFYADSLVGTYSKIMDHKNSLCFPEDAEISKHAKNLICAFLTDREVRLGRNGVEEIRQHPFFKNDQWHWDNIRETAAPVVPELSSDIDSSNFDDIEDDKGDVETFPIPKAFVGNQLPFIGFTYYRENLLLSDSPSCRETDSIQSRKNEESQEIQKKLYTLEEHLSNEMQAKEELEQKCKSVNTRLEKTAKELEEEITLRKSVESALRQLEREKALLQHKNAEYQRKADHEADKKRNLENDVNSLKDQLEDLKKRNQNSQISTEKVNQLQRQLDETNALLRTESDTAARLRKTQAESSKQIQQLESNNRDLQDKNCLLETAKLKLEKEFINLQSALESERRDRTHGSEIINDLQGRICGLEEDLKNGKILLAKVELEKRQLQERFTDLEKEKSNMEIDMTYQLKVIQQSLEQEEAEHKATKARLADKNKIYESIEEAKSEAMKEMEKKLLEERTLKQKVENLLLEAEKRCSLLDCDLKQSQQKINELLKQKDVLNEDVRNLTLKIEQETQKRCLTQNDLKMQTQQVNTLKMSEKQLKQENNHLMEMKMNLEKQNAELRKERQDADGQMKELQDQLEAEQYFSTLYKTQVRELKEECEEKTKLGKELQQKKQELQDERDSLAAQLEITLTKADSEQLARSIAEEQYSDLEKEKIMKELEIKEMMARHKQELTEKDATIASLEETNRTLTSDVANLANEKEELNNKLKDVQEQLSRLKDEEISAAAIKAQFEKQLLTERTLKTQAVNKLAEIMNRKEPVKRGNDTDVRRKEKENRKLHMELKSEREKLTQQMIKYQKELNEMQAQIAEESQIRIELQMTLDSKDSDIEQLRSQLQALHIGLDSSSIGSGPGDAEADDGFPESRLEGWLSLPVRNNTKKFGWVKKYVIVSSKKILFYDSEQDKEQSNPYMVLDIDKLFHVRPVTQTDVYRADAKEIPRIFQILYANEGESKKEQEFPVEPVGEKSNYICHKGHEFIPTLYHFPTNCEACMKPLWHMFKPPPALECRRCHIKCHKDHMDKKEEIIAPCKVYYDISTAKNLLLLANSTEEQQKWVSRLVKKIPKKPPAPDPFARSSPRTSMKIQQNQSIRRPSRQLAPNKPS

Row | SMILES | IC50 [nM]
1 | Cc1cccc2nc(NC(=O)Cc3ccc(Oc4ncccc4C(N)=O)c(F)c3)nn12 [Example 096, 2-(2-fluoro-4-(2-((5-methyl-[1,2,4]triazolo[1,5-a]pyridin-2-yl)amino)-2-oxoethyl)phenoxy) nicotinamide] | 110
2 | NC(=O)c1cccnc1Oc1ccc(CC(=O)Nc2nnc(-c3ccncc3)s2)cc1F [Example 097, 2-(2-fluoro-4-(2-oxo-2-((5-(pyridin-4-yl)-1,3,4-thiadiazol-2-yl)amino)ethyl)phe-noxy)nicotinamide] | 336
3 | Cc1nc(NC(=O)Cc2ccc(Oc3ncccc3C(N)=O)c(F)c2)sc1C [Example 098, 2-(4-(2-((4,5-dimethylthiazol-2-yl)amino)-2-oxoethyl)-2-fluorophenoxy)nico-tinamide] | 31
4 | NC(=O)c1cccnc1Oc1ccc(CC(=O)Nc2ccn(CC(F)(F)F)n2)cc1F [Example 099, 2-(2-fluoro-4-(2-oxo-2-((1-(2,2,2-trifluoroethyl)-1H-pyrazol-3-yl)amino)ethyl)phe-noxy)nicotinamide] | 583
5 | NC(=O)c1cccnc1Oc1ccc(CC(=O)Nc2ccn(-c3ccc(C(F)(F)F)cn3)n2)cc1F [Example 100, 2-(2-fluoro-4-(2-oxo-2-((1-(5-(trifluoromethyl)pyridin-2-yl)-1H-pyrazol-3-yl)amino)ethyl)phe-noxy)nicotinamide] | 191
6 | NC(=O)c1cccnc1Oc1ccc(CC(=O)Nc2nc(C3CC3)ns2)cc1F [Example 101, 2-(4-(2-((3-cyclopropyl-1,2,4-thiadiazol-5-yl)amino)-2-oxoethyl)-2-fluorophenoxy)nico-tinamide] | 261
7 | Cc1sc(NC(=O)Cc2ccc(Oc3ncccc3C(N)=O)c(Cl)c2)nc1-c1cccnc1F [Example 102, 2-(2-chloro-4-(2-((4-(2-fluoropyridin-3-yl)-5-methylthiazol-2-yl)amino)-2-oxoethyl)phenoxy) nicotinamide] | 12
8 | Cc1sc(NC(=O)Cc2ccc(Oc3ncccc3C(N)=O)c(Cl)c2)nc1-c1ccc(F)nc1 [Example 103, 2-(2-chloro-4-(2-((4-(6-fluoropyridin-3-yl)-5-methylthiazol-2-yl)amino)-2-oxoethyl)phenoxy) nicotinamide] | 17
9 | Cc1sc(NC(=O)Cc2ccc(Oc3ncccc3C(N)=O)c(Cl)c2)nc1-c1cnn(C)c1 [Example 104, 2-(2-chloro-4-(2-((5-methyl-4-(1-methyl-1H-pyrazol-4-yl)thiazol-2-yl)amino)-2-oxoethyl)phenoxy) nicotinamide] | 7
10 | Cc1sc(NC(=O)Cc2ccc(Oc3ncccc3C(N)=O)c(Cl)c2)nc1-c1ccc(Cl)nc1 [Example 105, 2-(2-chloro-4-(2-((4-(6-chloropyridin-3-yl)-5-methylthiazol-2-yl)amino)-2-oxoethyl)phenoxy) nicotinamide] | 15
11 | COc1ccc2c(c1)CCc1sc(NC(=O)C(C)c3ccc(Oc4ncccc4C(N)=O)cc3)nc1-2 (stereo not shown) [Example 106, 2-(4-(1-((7-methoxy-4,5-dihydronaphtho[1,2-d]thiazol-2-yl)amino)-1-oxopropan-2-yl)phenoxy)nicotinamide] | 262
12 | CC(C)(O)COc1ccc2sc(NC(=O)Cc3ccc(Oc4ncccc4C(N)=O)cc3)nc2c1 [Example 107, 2-(4-(2-((5-(2-hydroxy-2-methylpropoxy)benzo[d]thiazol-2-yl)amino)-2-oxoethyl)phenoxy)nicotinamide] | 29
13 | CC(C)(O)COc1ccc2c(c1)CCc1sc(NC(=O)Cc3ccc(Oc4ncccc4C(N)=O)cc3)nc1-2 [Example 108, 2-(4-(2-((7-(2-hydroxy-2-methylpropoxy)-4,5-dihydronaphtho[1,2-d]thiazol-2-yl)amino)-2-oxoethyl)phenoxy)nicotinamide] | 40
14 | CC(C)(O)COc1ccc2nc(NC(=O)Cc3ccc(Oc4ncccc4C(N)=O)cc3)sc2c1 [Example 109, 2-(4-(2-((6-(2-hydroxy-2-methylpropoxy)benzo[d]thiazol-2-yl)amino)-2-oxoethyl)phenoxy)nicotinamide] | 74
15 | CC(C)(O)COc1ccn2nc(NC(=O)Cc3ccc(Oc4ncccc4C(N)=O)c(F)c3)nc2c1 [Example 110, 2-(2-fluoro-4-(2-((7-(2-hydroxy-2-methylpropoxy)-[1,2,4]triazolo[1,5-a]pyridin-2-yl)amino)-2-oxoethyl)phenoxy)nicotinamide] | 36
16 | NC(=O)c1cccnc1Oc1ccc(CC(=O)Nc2nc3ccccc3n2CC(F)F)cc1F [Example 111, 2-(4-(2-((1-(2,2-difluoroethyl)-1H-benzo[d]imidazol-2-yl)amino)-2-oxoethyl)-2-fluorophenoxy)nicotinamide] | 37
17 | CC(C)(O)COc1ccc2sc(NC(=O)Cc3ccc(Oc4ncccc4C(N)=O)c(Cl)c3)nc2c1 [Example 112, 2-(2-chloro-4-(2-((5-(2-hydroxy-2-methylpropoxy)benzo[d]thiazol-2-yl)amino)-2-oxoethyl)phenoxy)nicotinamide] | 6

Row | SMILES | IC50 [nM]
18 | CC(C)(O)COc1ccc2c(c1)CCc1sc(NC(=O)Cc3ccc(Oc4ncccc4C(N)=O)c(Cl)c3)nc1-2 [Example 113, 2-(2-chloro-4-(2-((7-(2-hydroxy-2-methylpropoxy)-4,5-dihydronaphtho[1,2-d]thiazol-2-yl)amino)-2-oxoethyl)phenoxy)nicotinamide] | 58
19 | CC(C)(O)COc1ccc2c(c1)N(C(=O)Cc1ccc(Oc3ncccc3C(N)=O)c(F)c1)CC2 [Example 114, 2-(2-fluoro-4-(2-(6-(2-hydroxy-2-methylpropoxy)indolin-1-yl)-2-oxoethyl)phenoxy)nicotinamide] | 162
20 | COc1ccc2c(c1)CCc1sc(NC(=O)Cc3ccc(Oc4ncccc4C(N)=O)c(Cl)c3)nc1-2 [Example 116, 2-(2-chloro-4-(2-((7-methoxy-4,5-dihydronaphtho[1,2-d]thiazol-2-yl)amino)-2-oxoethyl)phenoxy)nicotinamide] | 8
21 | COc1ccc2sc(NC(=O)Cc3ccc(Oc4ncccc4C(N)=O)c(OC)c3)nc2c1 [Example 117, 2-(2-methoxy-4-(2-((5-methoxybenzo[d]thiazol-2-yl)amino)-2-oxoethyl)phenoxy)nicotinamide] | 139
22 | COc1cc(CC(=O)Nc2nc3cc(OCC(C)(C)O)ccc3s2)ccc1Oc1ncccc1C(N)=O [Example 118, 2-(4-(2-((5-(2-hydroxy-2-methylpropoxy)benzo[d]thiazol-2-yl)amino)-2-oxoethyl)-2-methoxyphenoxy)nicotinamide] | 650
23 | COc1ccn2nc(NC(=O)Cc3ccc(Oc4ncccc4C(N)=O)c(Br)c3)nc2c1 [Example 119, 2-(2-bromo-4-(2-((7-methoxy-[1,2,4]triazolo[1,5-a]pyridin-2-yl)amino)-2-oxoethyl)phenoxy)nicotinamide] | 6
24 | COc1ccc2c(c1)nc(NC(=O)Cc1ccc(Oc3ncccc3C(N)=O)c(F)c1)n2CC(F)F [Example 120, 2-(4-(2-((1-(2,2-difluoroethyl)-5-methoxy-1H-benzo[d]imidazol-2-yl)amino)-2-oxoethyl)-2-fluorophenoxy)nicotinamide] | 23
25 | NC(=O)c1cccnc1Oc1ccc(CC(=O)Nc2nc3ccc(OC(F)F)nc3s2)cc1Cl [Example 121, 2-(2-chloro-4-(2-((5-(difluoro-methoxy)thiazolo-[5,4-b]pyridin-2-yl)amino)-2-oxoethyl)phenoxy)-nicotinamide] | 45
26 | NC(=O)c1cccnc1Oc1ccc(CC(=O)Nc2n[nH]c3ccccc23)cc1Cl [Example 122, 2-(4-(2-((1H-indazol-3-yl)-amino)-2-oxoethyl)-2-chlorophenoxy)-nicotinamide] | 97
27 | COc1ccc2nc(NC(=O)Cc3ccc(Oc4ncccc4C(N)=O)c(F)c3)n(CC(F)F)c2c1 [Example 123, 2-(4-(2-((1-(2,2-difluoroethyl)-6-methoxy-1H-benzo-[d]imidazol-2-yl)-amino)-2-oxoethyl)-2-fluorophenoxy)-nicotinamide] | 18
28 | COc1ccn2nc(NC(=O)Cc3ccc(Oc4ncccc4C(N)=O)cc3)nc2c1 [Example 124, 2-(4-(2-((7-methoxy-[1,2,4]-triazolo[1,5-a]-pyridin-2-yl)-amino)-2-oxo-ethyl)phenoxy)-nicotinamide] | 68.5
29 | COc1ccn2nc(NC(=O)Cc3ccc(Oc4ncccc4C(N)=O)c(Cl)c3)nc2c1 [Example 125, 2-(2-chloro-4-(2-((7-methoxy-[1,2,4]triazolo-[1,5-a]pyridin-2-yl)amino)-2-oxoethyl)phenoxy)-nicotinamide] | 12
30 | NC(=O)c1cccnc1Oc1ccc(CC(=O)Nc2nc3cccc(C(F)(F)F)n3n2)cc1F [Example 126, 2-(2-fluoro-4-(2-oxo-2-((5-(trifluoro-methyl)-[1,2,4]-triazolo[1,5-a]-pyridin-2-yl)amino)-ethyl)phenoxy)-nicotinamide] | 82
31 | NC(=O)c1cccnc1Oc1ccc(CC(=O)Nc2nc3c(F)cccn3n2)cc1F [Example 127, 2-(2-fluoro-4-(2-((8-fluoro-[1,2,4]-triazolo[1,5-a]-pyridin-2-yl)amino)-2-oxoethyl)phenoxy)-nicotinamide] | 127
32 | NC(=O)c1cccnc1Oc1ccc(CC(=O)Nc2nc3ccc(F)cn3n2)cc1F [Example 128, 2-(2-fluoro-4-(2-((6-fluoro-[1,2,4]-triazolo[1,5-a]-pyridin-2-yl)amino)-2-oxoethyl)phenoxy)-nicotinamide] | 301
33 | NC(=O)c1cccnc1Oc1ccc(CC(=O)Nc2nc3ccc(C(F)(F)F)cn3n2)cc1F [Example 129, 2-(2-fluoro-4-(2-oxo-2-((6-(trifluoromethyl)-[1,2,4]triazolo-[1,5-a]pyridin-2-yl)amino)ethyl)-phenoxy)nicotin-amide] | 69
34 | Cc1cc2nc(NC(=O)Cc3ccc(Oc4ncccc4C(N)=O)c(F)c3)nn2cc1C [Example 130, 2-(4-(2-((6,7-dimethyl-[1,2,4]-triazolo[1,5-a]-pyridin-2-yl)-amino)-2-oxoethyl)-2-fluorophenoxy)-nicotinamide] | 23
